Results on three compounds are retold here after US8835353B2, “Germination acceleration” (Valent BioSciences Corporation, priority 2007, dated 2014).

Data set [1] has as its system sweet corn (cv. Silver Queen). Nature of the data set: Pouch study: seed treatment, coleoptile and radicle growth at 10° C. Type of data set: in vivo. As to conditions: 6BA 10 ppm, pouches at 10° C. The method, then: For all seed treatments, 1 ppm active ingredient refers to 1 microgram active ingredient per gram of seed. For these studies, GA3, GA4/7, 6BA, or CPPU were each dispensed into a 15 ml centrifuge tube, and 2.5 ml of de-ionized water was then added to each tube. The solution was mixed on a vortex mixer and 0.25 ml of this solution was then placed in another 50 ml. centrifuge tube along with 10 grams of sweet corn seed (cv. Silver Queen) or field corn (cv. Hybrid 2652) seed and rotated 360° on a Labquake Rotissarie for 10 minutes to ensure proper seed coverage. To simulate commercial seed treatments, the amount of solutions was just sufficient to wet the seeds. […] Pouch studies: A CYG germination pouch was drenched with 17 ml of 10° C. de-ionized water. Three treated seeds were placed in the trough of the germination paper, contained within the pouch. Pouches were placed in a Nalgene plastic container cooled to 10° C. The container was incubated in a 10° C. growth chamber with a 16 hour light cycle for the duration of the study. Seedling coleoptiles and radicles were measured by removing the seedling from the pouch and measuring with a ruler. […] The amount of applied is expressed as ppm or micrograms of compound per gram of seed. […]

The subject of data set [2] is sweet corn (cv. Silver Queen). In words: Pro-Mix study: seed treatment, coleoptile emergence and length at 10° C. It is filed as in vivo. As to conditions: ProMix at 10° C. As to the method: (§1) For all seed treatments, 1 ppm active ingredient refers to 1 microgram active ingredient per gram of seed. For these studies, GA3, GA4/7, 6BA, or CPPU were each dispensed into a 15 ml centrifuge tube, and 2.5 ml of de-ionized water was then added to each tube. The solution was mixed on a vortex mixer and 0.25 ml of this solution was then placed in another 50 ml. centrifuge tube along with 10 grams of sweet corn seed (cv. Silver Queen) or field corn (cv. Hybrid 2652) seed and rotated 360° on a Labquake Rotissarie for 10 minutes to ensure proper seed coverage. To simulate commercial seed treatments, the amount of solutions was just sufficient to wet the seeds. Seeds were dried overnight in weigh boats.
Pro-Mix studies: Pro Mix potting media was cooled to 10° C. and then placed in a 20 inch×10 inch flat to a depth of 5 cm. A trough of twenty seeds/treatment were planted at a depth of 2 cm. Four trays of twenty seeds each were planted per treatment. The trays were incubated in a growth chamber set at 10° C., 16 hour light cycle. Corn emergence counts were made daily.
Sweet corn (cv. Silver Queen) seeds were treated with solutions containing GA4/7, 6BA, or GA4/7 and 6BA, planted into ProMix soil, and held at 10° C. At 22 days after treatment, more seedlings from seeds treated with the combination treatment of GA4/7 and 6BA had emerged than seeds treated with 6BA or GA4/7 alone (Table 2).
Sweet corn (cv. Silver Queen) seeds were treated with solutions containing GA3, 6BA, or GA3 and 6BA, planted into ProMix soil, and held at 10° C.

Data set [3] deals with hybrid field corn (Hybrid 2652). Nature of the data set: Petri plate study: seed treatment, coleoptile emergence at 10° C. It is filed as in vivo. The following applies: 6BA 10 ppm, petri plates at 10° C. The method, then: For all seed treatments, 1 ppm active ingredient refers to 1 microgram active ingredient per gram of seed. For these studies, GA3, GA4/7, 6BA, or CPPU were each dispensed into a 15 ml centrifuge tube, and 2.5 ml of de-ionized water was then added to each tube. The solution was mixed on a vortex mixer and 0.25 ml of this solution was then placed in another 50 ml. centrifuge tube along with 10 grams of sweet corn seed (cv. Silver Queen) or field corn (cv. Hybrid 2652) seed and rotated 360° on a Labquake Rotissarie for 10 minutes to ensure proper seed coverage. To simulate commercial seed treatments, the amount of solutions was just sufficient to wet the seeds. […] Petri plate studies: Each standard petri plate (100 mm×50 mm) contained 1 blue Anchor germination circle (3¼ inches in diameter) drenched with 7 ml of de-ionized water cooled to 10° C. Each treatment consisted of 4 petri plates of 10 seeds each. After plating, the petri plates were placed in a Nalgene plastic container cooled to 10° C. This in turn was incubated in a 10° C. growth chamber with a 16 hour light cycle for the duration of the study. Counts were made by visually examining each seed for radicle and coleoptile protrusion. Hybrid field corn seeds (cv. Hybrid 2652) were treated with solutions containing GA4/7 or 6BA or combinations of GA4/7 and 6BA, plated onto wetted paper in a petri plate, and held at 10° C.

The subject of data set [4] is seedlings. In words: Preliminary studies: seedling quality and radicle growth after seed treatment. It is filed as in vivo, corn. The following applies: high rates of 6BA (>10 ppm).
The test system of data set [5] is sweet corn (cv. Silver Queen). Nature of the data set: Petri plate study: seed treatment, coleoptile emergence at 10° C. It is filed as in vivo. The following applies: petri plates at 10° C. As to the method: as §1
Petri plate studies: Each standard petri plate (100 mm×50 mm) contained 1 blue Anchor germination circle (3¼ inches in diameter) drenched with 7 ml of de-ionized water cooled to 10° C. Each treatment consisted of 4 petri plates of 10 seeds each. After plating, the petri plates were placed in a Nalgene plastic container cooled to 10° C. This in turn was incubated in a 10° C. growth chamber with a 16 hour light cycle for the duration of the study. Counts were made by visually examining each seed for radicle and coleoptile protrusion. […]

Regarding `c1ccc(CNc2ncnc3nc[nH]c23)cc1` [6BA, N^6-phenylmethyl-1H-purin-6-amine], in data set [1], the “Coleoptile length (cm) at 22 days after treatment” value stood at 2.17 cm and the “Radicle length (cm) at 22 days after treatment” value is recorded as 2.78 cm. The “Percent coleoptile emergence at 21 days after treatment” value in data set [2] (6BA 10 ppm) is given as 3.7%. In addition, in data set [2] (6BA 10 ppm, 22 days), the “Percent coleoptile emergence at 22 days after treatment” value is given as 6.2%. In addition, the “Coleoptile length above ground (mm) at 32 days after treatment” value in data set [2] (6BA 10 ppm, 32 days) is recorded as 17.1 mm. The “Length of the emerged coleoptiles at 32 days after treatment, compared to the control” value in data set [2] (6BA, 32 days) is “no significant effect compared to the control”. For the same compound, the “Percent coleoptile emergence at 12 days after treatment” value in data set [3] stood at 32%. In data set [4], the Radicle growth entry was “reduced radicle growth” and the Seedling quality entry is reported as “substantially reduced seedling quality”.
Take `O=C(Nc1ccccc1)Nc1ccnc(Cl)c1` [CPPU, 1-(2-chloro-4-pyridyl)-3-phenylurea]: the “Percent coleoptile emergence at 14 days after treatment” value in data set [5] (CPPU 1 ppm) came to 0%; in data set [5] (CPPU 10 ppm), 4%.
`C=C1C[C@]23C[C@@]1(O)CC[C@H]2[C@@]12C=C[C@H](O)[C@@](C)(C(=O)O1)[C@H]2[C@@H]3C(=O)O` [GA3, (1α,2β,4aα,4bβ,10β)-2,4a,7-trihydroxy-1-methyl-8-methylenegibb-3-ene-1,10-dicarboxylic acid 1,4a-lactone]: the “Percent coleoptile emergence at 21 days after treatment” value in data set [2] (GA3 100 ppm) is 1.2%.
